# Test results from article PMC5094990, “Novel 1, 3-N, O-Spiroheterocyclic compounds inhibit heparanase activity and enhance nedaplatin-induced cytotoxicity in cervical cancer cells” (Oncotarget, 2016).
# Where two headings read alike, the source gives them in different places.
# Columns and labels:
# [1] = test system: HeLa cells; assay: Cell wound healing assay (migration), HeLa cells; assay type: cell-based, human; conditions: 50 μM, 24 hours, compared to control
# Experimental: (§1) Straight lines 0.5 cm apart from each other were marked on the bottoms of culture dishes opposite the label lines. Logarithmic phase cells were seeded into 35 mm culture dishes. Nicks were made 0.5 cm apart on the bottom of the dish along the labeled lines with a 200 μl sterile pipette tip after cells were close to saturated. Dishes were then washed with sterile PBS three times, 2% FBS medium containing 0 or 50 μM of No. 16 inhibitor was added, and dishes were incubated for 24 hours. The scratch width was photographed under phase contrast on an inverted microscope with a digital camera (100× magnification). The experiment was repeated three times.
# [2] = test system: Siha cells; assay: Cell wound healing assay (migration), Siha cells; assay type: cell-based, human; conditions: 50 μM, 24 hours, compared to control
# Experimental: as §1
# [3] = test system: HaCaT human normal keratinocytes; assay: MTT assay, growth inhibition of HaCaT cells; assay type: cell-based; conditions: time not given
# Experimental: (§2) Cells were cultured in improved medium supplemented with 10% FBS and kept at 37°C in a […] humidified atmosphere containing 5% CO2. Logarithmic phase cells were used for the experiment and were treated with different concentrations of different medications for different amounts of time. […] Inhibitors were made into 10 mM stock solutions with DMSO, filtered, and kept at room temperature away from light. These inhibitor stock solutions were diluted to the required concentration (1, 5, 15, 30, 60, 120, 180, or 240 μM) before every experiment. The final doses of nedaplatin were […]. In order to determine whether an HPA inhibitor sensitized cells to nedaplatin, 10 μM of inhibitor number 16 (No. 16) was added into each experimental well with nedaplatin.
# (§3) 200 μl of single-cell suspension at a density of 5 × 10^4 cells/ml was seeded into 96-well plates. […] OD values were measured at the wavelength of 492 nm with a reference wavelength of 630 nm. Inhibition rate (IR) in the cells was calculated as follows: IR = ((OD2-OD0)-(OD1-OD0))/(OD2-OD0) × 100%, where OD0 was the OD value of blank wells, OD2 was the value of normal control wells, and OD1 was the value of experimental wells. […]
# [4] = test system: h-TERT; assay: h-TERT expression in HeLa and Siha cells (western blot and PCR); assay type: cell-based, human; conditions: both HeLa and Siha cells, 50 μM, 48 hours
# Experimental: (§4) Cells were washed with precooled PBS after being treated with inhibitor for 48 hours, and cell lysis solution was added to extract protein. The sample concentration was measured by the bicinchoninic acid method. 30 μg of protein was separated by 10% polyacrylamide gel electrophoresis (PAGE) and transferred to polyvinylidene difluoride membranes. After blocking in non-fat milk solution at room temperature, the membranes were incubated with diluted primary antibodies against either proteins of interest or β-actin overnight at 4°C. After consecutive washes, the membranes were incubated with secondary antibody (diluted 1:5000) at room temperature for 1 h. Then, the membranes were developed with enhanced chemiluminescence and imaged with ImageQuant LAS4000 (GE Healthcare Life Sciences, Pittsburgh, PA). The grey values of protein bands were analyzed using Image J (National Institutes of Health, USA). The relative levels of proteins of interest were calculated in comparison to the internal reference β-actin. The experiment was repeated three times.
# (§5) Levels of HPA, p53, c-Myc, and hTERT mRNA were analyzed by real-time PCR. mRNA was extracted from cells and separated and purified with Trizol. The total RNA concentration was measured with an ultraviolet spectrophotometer. The quality of total RNA was assessed using 1.5% agarose gel electrophoresis. […]
# [5] = test system: p53; assay: p53 expression in HeLa and Siha cells (western blot and PCR); assay type: cell-based, human; conditions: both HeLa and Siha cells, 50 μM, 48 hours
# Experimental: as §4, §5
# [6] = test system: c-Myc; assay: c-Myc expression in HeLa and Siha cells (western blot and PCR); assay type: cell-based, human; conditions: both HeLa and Siha cells, 50 μM, 48 hours
# Experimental: as §4, §5
# [7] = test system: HPA; assay: HPA expression in HeLa and Siha cells (immunocytochemical staining, western blot, real time PCR); assay type: cell-based, human; conditions: 50 μM, 24 hours, stronger after 48 hours
# Description: The experiment was repeated three times.
# The experiment was repeated twice.
# [8] = test system: HaCaT cells; assay: Cell wound healing assay (migration), HaCaT cells; assay type: cell-based, human; conditions: 50 μM, 24 hours, compared to control
# Experimental: as §1
# [9] = test system: Siha cells; assay: MTT assay, growth inhibition of Siha cells; assay type: cell-based, human
# Experimental: as §2, §3
# [10] = test system: HeLa cells; assay: MTT assay, growth inhibition of HeLa cells; assay type: cell-based, human; conditions: for IC50 / inhibition at 1 µM / inhibition at 5 µM / inhibition at 15 µM / inhibition at 30 µM / inhibition at 60 µM / inhibition at 120 µM / inhibition at 180 µM / inhibition at 240 µM: Homo sapiens, HeLa; for inhibition at 1 µM / inhibition at 5 µM / inhibition at 15 µM / inhibition at 30 µM / inhibition at 60 µM / inhibition at 120 µM / inhibition at 180 µM / inhibition at 240 µM: read-out: Growth inhibition rate in HeLa cells
# Experimental: as §2
# 200 μl of single-cell suspension at a density of 5 × 10^4 cells/ml was seeded into 96-well plates. When cells were adherent, the medium was replaced with 200 μl of medium containing different concentrations of inhibitor or nedaplatin, and the cells were further incubated for 24 hours to 96 hours respectively. 20 μl MTT solution ([…] in phosphate buffered saline (PBS)) was added to each well 4 hours before the treatment ended. The cells were then incubated for another 4 hours, after which the supernatants were removed. The cells were totally solubilized in 150 μl DMSO. OD values were measured at the wavelength of 492 nm with a reference wavelength of 630 nm. Inhibition rate (IR) in the cells was calculated as follows: IR = ((OD2-OD0)-(OD1-OD0))/(OD2-OD0) × 100%, where OD0 was the OD value of blank wells, OD2 was the value of normal control wells, and OD1 was the value of experimental wells. Each condition was replicated in six separate wells.
# [11] = biological target: T1, human recombinant HPA (Homo sapiens, UniProt Q9Y251); assay: Detection of HPA activity inhibition (Heparan Degrading Enzyme Assay Kit); assay type: biochemical; conditions: 31 mIU human recombinant HPA, 37°C, 45 minutes; read-out: IC50, inhibitory effect on heparanase activity
# T1 sequence (Q9Y251 158-543 limits assumed): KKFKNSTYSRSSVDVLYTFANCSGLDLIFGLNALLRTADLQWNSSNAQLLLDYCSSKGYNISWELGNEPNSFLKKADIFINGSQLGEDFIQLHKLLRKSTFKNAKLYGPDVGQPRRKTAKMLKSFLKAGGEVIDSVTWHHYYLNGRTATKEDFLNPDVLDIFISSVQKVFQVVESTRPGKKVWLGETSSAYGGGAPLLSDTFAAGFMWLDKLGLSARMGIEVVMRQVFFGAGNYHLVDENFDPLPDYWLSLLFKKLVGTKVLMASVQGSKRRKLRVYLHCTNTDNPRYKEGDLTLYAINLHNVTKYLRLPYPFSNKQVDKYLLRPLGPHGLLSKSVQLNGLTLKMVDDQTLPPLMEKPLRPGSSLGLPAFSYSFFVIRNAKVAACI
# T1 sequence (Q9Y251 36-109 limits assumed): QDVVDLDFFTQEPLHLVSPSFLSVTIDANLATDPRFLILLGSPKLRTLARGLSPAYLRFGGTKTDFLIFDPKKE
# Experimental: The final reaction volume of each vial was 100 μl. […] Then, 100 μl of terminating liquid was added into each well. OD values were examined at a wavelength of 450 nm. Each concentration was tested in three separate wells. GraphPad Prism 5 (GraphPad Prism Software Inc., San Diego) was used to calculate the inhibitory IC50 values.
# [12] = 48 hours, MTT, read-out: IC50, growth inhibition of HeLa cells
Compound,melting point [°C],IC50 [11] [µM],"inhibition at 1 µM ([10]; 1 μM, 48 hs, mean ± s) [%]","inhibition at 5 µM ([10]; 5 μM, 48 hs, mean ± s) [%]","inhibition at 15 µM ([10]; 15 μM, 48 hs, mean ± s) [%]","inhibition at 30 µM ([10]; 30 μM, 48 hs, mean ± s) [%]","inhibition at 60 µM ([10]; 60 μM, 48 hs, mean ± s) [%]","inhibition at 120 µM ([10]; 120 μM, 48 hs, mean ± s) [%]","inhibition at 180 µM ([10]; 180 μM, 48 hs, mean ± s) [%]","inhibition at 240 µM ([10]; 240 μM, 48 hs, mean ± s) [%]","IC50 [10, 12] [µM]",other results
COc1ccc(C2CNC(c3ccccc3F)OC23CCCCC3)cc1 (centres unmarked) [No. 16],171.3 to 172.5,–,–,–,–,–,–,–,–,–,–,"Effect on cell migration (scratch width) [1]: inhibited the migration; Effect on cell migration (scratch width) [2]: inhibited the migration; IC50 [3]: 1710 µM; Effect on h-TERT expression [4]: decreased; Effect on p53 expression [5]: increased; Effect on c-Myc expression [6]: decreased; Effect on HPA levels [7]: reduced HPA levels; Effect on cell migration (scratch width) [8]: minimal; IC50 ([9]; Homo sapiens, SiHa, read-out: IC50, growth inhibition of Siha cells): 78.8 µM; IC50 ([10]; 48 h, read-out: IC50, growth inhibition of HeLa cells, 48 hours, MTT): 48.2 µM; inhibition at 1 µM [10]: 7.41 ± 0.976%; inhibition at 5 µM [10]: 11 ± 0.467%; inhibition at 15 µM [10]: 20.2 ± 0.779%; inhibition at 30 µM [10]: 36.5 ± 0.471%; inhibition at 60 µM [10]: 59.3 ± 1.1%; inhibition at 120 µM [10]: 87.6 ± 0.891%; inhibition at 180 µM [10]: 92.89 ± 0.537%; inhibition at 240 µM [10]: 92.98 ± 0.237%"
Fc1cccc(F)c1C1NCC(c2ccccc2)C2(CCCCC2)O1 (centres unmarked) [No. 14],130.4 to 131.2,4.47,2.92 ± 0.155,4.05 ± 0.888,9.57 ± 0.761,17.9 ± 1.2,46.4 ± 1.22,78.58 ± 0.502,96.98 ± 0.86,98.96 ± 0.517,64.2,–
Clc1ccc(C2NCC(c3ccccc3)C3(CCCCC3)O2)cc1 (centres unmarked) [No. 11],127.7 to 128.5,–,1.22 ± 0.0789,2.65 ± 0.0739,5.26 ± 0.294,13.6 ± 1.22,41.8 ± 1.19,71.4 ± 1.15,97.18 ± 0.525,98.02 ± 0.465,70.2,–
COc1ccc(C2CNC(c3ccc(C)cc3)OC23CCCCC3)cc1 (centres unmarked) [No. 20],105.4 to 106.7,14.1,5.01 ± 0.247,5.02 ± 0.0834,13.3 ± 0.32,19.4 ± 1.34,38.49 ± 0.255,66.3 ± 1.14,90.5 ± 1.12,95.44 ± 0.525,77.6,–
[NH2][Pt]1([NH2])[O]CC(=O)[O]1 [nedaplatin],–,–,–,–,–,–,–,–,–,–,–,"IC50, growth inhibition of Siha cells by nedaplatin alone ([9]; 48 hours, nedaplatin alone): 11.204 µg/mL; IC50, growth inhibition of HeLa cells by nedaplatin alone ([10]; 48 hours, nedaplatin alone, listed as NDP): 2.878 µg/mL"
